Results from patent US20070105820A1 (priority 2005, published 2007).

System: Nav1.4
Assay type: cell-based, Chinese Hamster
Conditions: not given

SMILES | block of [14C] Guanidine influx by TTX
NC1=N[C@H](O)[C@H]2[C@H]3O[C@]4(O)O[C@@H]([C@@H](O)[C@@]2(N1)[C@@H]4O)[C@]3(O)CO [TTX, tetrodotoxin] | Guanidine influx was completely

System: Nav1.4 and 1.5
Assay type: cell-based, rat
Conditions: not given

SMILES | block of [14C] Guanidine influx by TTX
NC1=N[C@H](O)[C@H]2[C@H]3O[C@]4(O)O[C@@H]([C@@H](O)[C@@]2(N1)[C@@H]4O)[C@]3(O)CO [TTX, tetrodotoxin] | partially blocked by TTX (Nav1.5

Molecular target: NaV1.8 (Homo sapiens, UniProt Q9Y5Y9)
Assay type: cell-based
Conditions: not given

Chain of NaV1.8 (Q9Y5Y9 whole entry, looked up): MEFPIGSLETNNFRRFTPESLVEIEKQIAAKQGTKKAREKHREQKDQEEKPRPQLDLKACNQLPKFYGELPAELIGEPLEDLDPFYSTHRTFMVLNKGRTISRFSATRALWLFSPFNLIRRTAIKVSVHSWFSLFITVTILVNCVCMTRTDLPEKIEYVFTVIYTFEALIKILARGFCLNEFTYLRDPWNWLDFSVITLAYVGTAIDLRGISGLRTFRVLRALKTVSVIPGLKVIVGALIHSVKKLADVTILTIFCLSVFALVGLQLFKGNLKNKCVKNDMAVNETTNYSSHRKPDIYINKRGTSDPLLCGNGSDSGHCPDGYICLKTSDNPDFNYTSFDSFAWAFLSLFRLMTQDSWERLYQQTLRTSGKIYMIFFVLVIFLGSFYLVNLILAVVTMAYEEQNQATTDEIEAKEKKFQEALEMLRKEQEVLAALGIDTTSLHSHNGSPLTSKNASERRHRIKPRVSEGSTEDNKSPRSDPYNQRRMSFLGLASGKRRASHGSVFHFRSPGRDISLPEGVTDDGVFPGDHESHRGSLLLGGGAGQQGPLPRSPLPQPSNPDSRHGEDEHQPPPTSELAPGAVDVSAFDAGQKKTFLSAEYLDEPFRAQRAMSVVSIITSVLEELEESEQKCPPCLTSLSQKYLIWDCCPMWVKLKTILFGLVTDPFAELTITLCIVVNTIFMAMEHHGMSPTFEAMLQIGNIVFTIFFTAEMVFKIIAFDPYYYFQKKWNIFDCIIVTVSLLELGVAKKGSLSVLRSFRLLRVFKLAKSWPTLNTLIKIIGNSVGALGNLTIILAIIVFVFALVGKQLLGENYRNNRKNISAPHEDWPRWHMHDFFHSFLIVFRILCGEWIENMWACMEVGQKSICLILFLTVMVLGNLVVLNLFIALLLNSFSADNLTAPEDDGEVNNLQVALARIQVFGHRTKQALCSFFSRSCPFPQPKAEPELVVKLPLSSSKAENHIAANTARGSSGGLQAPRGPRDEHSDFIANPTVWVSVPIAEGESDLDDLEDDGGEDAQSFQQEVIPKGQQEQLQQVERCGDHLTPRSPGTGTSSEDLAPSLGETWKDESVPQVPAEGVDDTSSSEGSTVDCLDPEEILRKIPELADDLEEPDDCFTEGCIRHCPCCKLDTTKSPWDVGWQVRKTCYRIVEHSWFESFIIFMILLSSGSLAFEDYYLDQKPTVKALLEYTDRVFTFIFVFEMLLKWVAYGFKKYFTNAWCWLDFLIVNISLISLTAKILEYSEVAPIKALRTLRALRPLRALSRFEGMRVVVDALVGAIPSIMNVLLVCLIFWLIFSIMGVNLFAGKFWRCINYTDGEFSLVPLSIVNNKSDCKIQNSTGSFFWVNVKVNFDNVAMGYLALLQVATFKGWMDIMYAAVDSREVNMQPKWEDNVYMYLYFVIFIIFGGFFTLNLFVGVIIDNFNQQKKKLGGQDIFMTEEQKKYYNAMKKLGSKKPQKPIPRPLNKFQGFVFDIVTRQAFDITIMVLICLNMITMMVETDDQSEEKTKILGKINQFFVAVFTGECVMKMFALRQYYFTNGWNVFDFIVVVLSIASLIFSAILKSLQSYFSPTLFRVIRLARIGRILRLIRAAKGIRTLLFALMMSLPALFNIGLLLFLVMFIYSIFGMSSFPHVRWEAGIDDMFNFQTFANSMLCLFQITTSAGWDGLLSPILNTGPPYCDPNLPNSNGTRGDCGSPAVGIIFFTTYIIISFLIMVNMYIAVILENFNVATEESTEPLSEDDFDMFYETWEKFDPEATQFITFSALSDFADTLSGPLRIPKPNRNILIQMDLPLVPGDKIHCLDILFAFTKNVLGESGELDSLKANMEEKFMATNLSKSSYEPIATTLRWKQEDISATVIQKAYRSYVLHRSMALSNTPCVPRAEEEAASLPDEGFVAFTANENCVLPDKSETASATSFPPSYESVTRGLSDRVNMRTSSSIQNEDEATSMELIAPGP

SMILES | block of [14C] Guanidine influx by TTX
NC1=N[C@H](O)[C@H]2[C@H]3O[C@]4(O)O[C@@H]([C@@H](O)[C@@]2(N1)[C@@H]4O)[C@]3(O)CO [TTX, tetrodotoxin] | TTX partially blocked influx

System: not given
Conditions: not given

SMILES | melting point
CCCCCN1C(=O)C(O)(c2ccc3c(c2)OCO3)c2cccc(C(F)(F)F)c21 (centres unmarked) | 115 to 117 °C
CCCCCN1C(=O)C(O)(c2ccc3c(c2)OCO3)c2c(Cl)cccc21 (centres unmarked) | 140 to 142 °C
O=C1N(Cc2ccc(Cl)cc2)c2ccccc2C1(O)c1ccc2c(c1)OC(F)(F)O2 (centres unmarked) | 150 to 152 °C
CCCCCN1C(=O)C(O)(c2ccc3ocnc3c2)c2ccccc21 (centres unmarked) | 189 to 191 °C
O=C1N(Cc2ccc(Cl)s2)c2ccccc2C1(O)c1ccc2c(c1)OCO2 (centres unmarked) | 164 to 165 °C
O=C1N(Cc2cccs2)c2ccccc2C1(O)c1ccc2c(c1)OCO2 (centres unmarked) | 141 to 142 °C
CCCCCN1C(=O)C(c2cc3c(cc2O)OCO3)c2ccccc21 (centres unmarked) | 101 to 103 °C
COc1ccc(C2(O)C(=O)N(Cc3ccc(Cl)cc3)c3ccccc32)cc1OC (centres unmarked) | 155 to 158 °C
COc1ccc(CN2C(=O)C(O)(c3ccc4c(c3)OC(F)(F)O4)c3ccccc32)cc1 (centres unmarked) | 88 to 90 °C
O=C1N(Cc2ccc3c(c2)OCO3)c2ccccc2C1(O)c1ccc2ccoc2c1 (centres unmarked) | > 200 °C
CCCCCN1C(=O)C(c2ccc3c(c2)OCO3)c2cc(C)cc(C)c21 (centres unmarked) | 111 to 114 °C
O=C1N(Cc2cc3c(cc2Cl)OCO3)c2ccccc2C1(O)c1ccc2c(c1)OCO2 (centres unmarked) | 153 to 155 °C
CCCCCC1(O)C(=O)N(c2ccc3c(c2)OCO3)c2ccccc21 (centres unmarked) | 88 to 90 °C
O=C1N(Cc2ccc(Cl)cc2)c2ccc(OC(F)(F)F)cc2C1(O)c1ccc2c(c1)OCO2 (centres unmarked) | 138 to 140 °C
Cc1ccc2c(c1)C(O)(CC(=O)c1ccco1)C(=O)N2Cc1ccc(Cl)cc1 (centres unmarked) | 183 to 185 °C
CC(C)CCN1C(=O)C(O)(c2ccc3c(c2)OCO3)c2ccccc21 (centres unmarked) | 129 to 131 °C
O=C1N(Cc2cccc(C(F)(F)F)c2)c2ccccc2C1(O)c1ccc2c(c1)OCO2 (centres unmarked) | 133 to 135 °C
O=C1N(Cc2ccc(Cl)cc2)c2ccccc2C1(O)C#Cc1ccc(F)cc1 (centres unmarked) | 153 to 154 °C
CC(c1ccccc1)N1C(=O)C(O)(c2ccc3c(c2)OCO3)c2ccccc21 (centres unmarked) | 148 to 150 °C
CCCCCN1C(=O)C(O)(c2ccc3c(c2)OCO3)c2cccc(F)c21 (centres unmarked) | 102 to 104 °C
CCCCCN1C(=O)C(N)(CC(=O)c2cccs2)c2ccccc21 (centres unmarked) | 167 to 169 °C
COc1ccc2c(c1)C(O)(c1ccc3c(c1)OCO3)C(=O)N2Cc1ccc(F)cc1 (centres unmarked) | 127 to 129 °C
O=C(CC1(O)C(=O)N(Cc2ccc(Cl)cc2)c2ccccc21)c1ccccn1 (centres unmarked) | 185 °C (dec.)

SMILES | melting point
O=C1N(Cc2ccc(Cl)c(C(F)(F)F)c2)c2ccccc2C1(O)c1ccc2c(c1)OCO2 (centres unmarked) | 133 to 135 °C
O=C1N(Cc2ccccc2I)c2ccccc2C1(O)c1ccc2c(c1)OCO2 (centres unmarked) | 130 to 132 °C
CCCCCN1C(=O)C(NC(=O)OC(C)(C)C)c2ccccc21 (centres unmarked) | 145 to 147 °C
CCCCCN1C(=O)C(c2ccc3c(c2)OCO3)c2c(Cl)ccc(Cl)c21 (centres unmarked) | 84 to 86 °C
CCCCCN1C(=O)C(O)(c2ccc3c(c2)OCO3)c2ccc(Cl)cc21 (centres unmarked) | 103 to 105 °C
CCCCCN1C(=O)C(CO)(c2cc3c(cc2O)OCO3)c2ccccc21 (centres unmarked) | 125 to 127 °C
O=C1N(Cc2ccc(Cl)cc2)c2ccccc2C1(O)c1cncnc1 (centres unmarked) | 155 to 157 °C
O=C1N(Cc2cccc3cccnc23)c2ccccc2C1(O)c1ccc2c(c1)OCO2 (centres unmarked) | 187 to 189 °C
O=C1c2ccccc2CC1C1(O)C(=O)N(Cc2ccc(Cl)cc2)c2ccccc21 (centres unmarked) | 154 to 157 °C
O=C1C(c2ccc3c(c2)OCO3)c2ccccc2N1Cc1ccc(Cl)cc1 (centres unmarked) | 161 to 163 °C
O=C1N(Cc2ccc(Cl)cc2)c2ccccc2C1(O)c1ccc2ncsc2c1 (centres unmarked) | 185 to 187 °C
CCCCCN1C(=O)C(c2ccc3c(c2)OCO3)(c2cc3c(cc2O)OCO3)c2ccccc21 (centres unmarked) | 75 to 76 °C
O=C(c1ccc(Cl)cc1)N1C(=O)C(O)(c2ccccc2)c2ccccc21 (centres unmarked) | 141 to 143 °C
CCCCCN1C(=O)C(O)(c2ccc3c(c2)OCO3)c2cccc(-c3ccc(F)cc3)c21 (centres unmarked) | 149 to 151 °C
O=C(CC1(O)C(=O)N(CCc2ccc(Cl)cc2)c2ccccc21)c1ccco1 (centres unmarked) | 128 to 132 °C
CCCCCN1C(=O)C(O)(c2cc3c(cc2CO)OCO3)c2ccccc21 (centres unmarked) | 120 to 122 °C
CCCCCN1C(=O)C(c2ccc3c(c2)OCO3)c2cccc(F)c21 (centres unmarked) | 95 to 97 °C
O=C1N(Cc2ccc(C(F)(F)F)o2)c2ccc(F)cc2C1(CO)c1cc2c(cc1O)OCO2 (centres unmarked) | 92 to 95 °C
O=C1N(CCCC(F)(F)F)c2ccccc2C1(O)c1ccc2c(c1)OCO2 (centres unmarked) | 119 to 121 °C
O=C1N(Cc2cccc3ccccc23)c2ccccc2C1(O)c1ccc2c(c1)OCO2 (centres unmarked) | 93 to 95 °C
O=C1N(Cc2ccccn2)c2cccc(Br)c2C1(O)c1cc2c(cc1O)OCC2 (centres unmarked) | > 225 °C
COc1ccc(C2(O)C(=O)N(Cc3ccc(Cl)cc3)c3ccccc32)cn1 (centres unmarked) | 182 to 184 °C
O=C1N(Cc2ccc(Cl)cc2)c2ccc(Br)cc2C1(O)c1ccc2c(c1)OCO2 (centres unmarked) | 179 to 180 °C

SMILES | melting point
O=C1Nc2c(-c3ccc4c(c3)OCO4)cccc2C1(O)c1ccc2c(c1)OCO2 (centres unmarked) | 112 to 115 °C
O=C1N(Cc2ccc(Cl)cc2)c2ccccc2C1(O)CC1OCCO1 (centres unmarked) | 166 to 169 °C
O=C1N(Cc2ccc(-n3cccc3)cc2)c2ccccc2C1(O)c1ccc2c(c1)OCO2 (centres unmarked) | 195 to 198 °C
O=C1C(c2ccc3c(c2)OCO3)c2ccccc2N1CCC1CC1 (centres unmarked) | 87 to 89 °C
O=C1N(CCCCCCl)c2ccccc2C1(O)c1ccc2c(c1)OCO2 (centres unmarked) | 131 to 132 °C
O=C1N(Cc2ccc(Cl)cc2)c2ccccc2C1(O)c1ccc2c(c1)OCCCO2 (centres unmarked) | 188 to 190 °C
CCCCC(C)N1C(=O)C(O)(c2ccc3c(c2)OCO3)c2ccccc21 (centres unmarked) | 152 to 154 °C
O=C1N(Cc2ccc(Cl)cc2)c2ccccc2C1(O)c1ccc2ccoc2c1 (centres unmarked) | > 200 °C (dec.)
COc1ccccc1CN1C(=O)C(O)(c2ccc3c(c2)OCO3)c2ccccc21 (centres unmarked) | 148 to 150 °C
CCCCCCN1C(=O)C(O)(c2ccc3c(c2)OCO3)c2ccccc21 (centres unmarked) | 88 to 90 °C
O=C(CC1(O)C(=O)N(Cc2ccc(Cl)cc2)c2ccccc21)c1ccc(F)cc1 (centres unmarked) | 156 to 160 °C
O=C(CC1(O)C(=O)N(Cc2ccc(Cl)cc2)c2ccccc21)c1cc2ccccc2o1 (centres unmarked) | 185 °C (dec.)
O=C1N(Cc2ccc(Cl)cc2)c2ccc(F)cc2C1(O)c1ccc2c(c1)OCO2 (centres unmarked) | 145 to 147 °C
O=C1N(CCC2CC2)c2ccccc2C1(O)c1ccc2c(c1)OCO2 (centres unmarked) | 110 to 112 °C
O=C(CC1(O)C(=O)N(Cc2ccc3c(c2)OCO3)c2ccccc21)c1cccs1 (centres unmarked) | 186 to 187 °C
O=C(CC1(O)C(=O)N(Cc2ccc3c(c2)OCO3)c2ccccc21)c1ccco1 (centres unmarked) | 175 to 177 °C
O=C(CC1(O)C(=O)N(Cc2ccc(Cl)cc2)c2ccccc21)c1ccc[nH]1 (centres unmarked) | 202 °C (dec.)
CCCCCN1C(=O)C(O)(c2ccc3c(c2)OCO3)c2cc(C)cc(C)c21 (centres unmarked) | 120 to 121 °C
O=C1N(Cc2ccc(Cl)cc2)c2ccccc2C1(O)c1cc(OCc2ccccc2)ccc1O (centres unmarked) | 172 to 175 °C
CCCCCN1C(=O)C(O)(c2ccc3c(c2)OCO3)c2c(Cl)ccc(Cl)c21 (centres unmarked) | 82 to 84 °C
O=C(CC1(O)C(=O)N(c2ccc(F)cc2)c2ccccc21)c1ccco1 (centres unmarked) | 185 °C (dec.)
O=C1N(CC2CC2)c2ccccc2C1(O)c1ccc2c(c1)OCO2 (centres unmarked) | 142 to 145 °C

Molecular target: Nav1.2 (Rattus norvegicus, UniProt P04775)
Conditions: not given

Chain of Nav1.2 (P04775 whole entry, looked up): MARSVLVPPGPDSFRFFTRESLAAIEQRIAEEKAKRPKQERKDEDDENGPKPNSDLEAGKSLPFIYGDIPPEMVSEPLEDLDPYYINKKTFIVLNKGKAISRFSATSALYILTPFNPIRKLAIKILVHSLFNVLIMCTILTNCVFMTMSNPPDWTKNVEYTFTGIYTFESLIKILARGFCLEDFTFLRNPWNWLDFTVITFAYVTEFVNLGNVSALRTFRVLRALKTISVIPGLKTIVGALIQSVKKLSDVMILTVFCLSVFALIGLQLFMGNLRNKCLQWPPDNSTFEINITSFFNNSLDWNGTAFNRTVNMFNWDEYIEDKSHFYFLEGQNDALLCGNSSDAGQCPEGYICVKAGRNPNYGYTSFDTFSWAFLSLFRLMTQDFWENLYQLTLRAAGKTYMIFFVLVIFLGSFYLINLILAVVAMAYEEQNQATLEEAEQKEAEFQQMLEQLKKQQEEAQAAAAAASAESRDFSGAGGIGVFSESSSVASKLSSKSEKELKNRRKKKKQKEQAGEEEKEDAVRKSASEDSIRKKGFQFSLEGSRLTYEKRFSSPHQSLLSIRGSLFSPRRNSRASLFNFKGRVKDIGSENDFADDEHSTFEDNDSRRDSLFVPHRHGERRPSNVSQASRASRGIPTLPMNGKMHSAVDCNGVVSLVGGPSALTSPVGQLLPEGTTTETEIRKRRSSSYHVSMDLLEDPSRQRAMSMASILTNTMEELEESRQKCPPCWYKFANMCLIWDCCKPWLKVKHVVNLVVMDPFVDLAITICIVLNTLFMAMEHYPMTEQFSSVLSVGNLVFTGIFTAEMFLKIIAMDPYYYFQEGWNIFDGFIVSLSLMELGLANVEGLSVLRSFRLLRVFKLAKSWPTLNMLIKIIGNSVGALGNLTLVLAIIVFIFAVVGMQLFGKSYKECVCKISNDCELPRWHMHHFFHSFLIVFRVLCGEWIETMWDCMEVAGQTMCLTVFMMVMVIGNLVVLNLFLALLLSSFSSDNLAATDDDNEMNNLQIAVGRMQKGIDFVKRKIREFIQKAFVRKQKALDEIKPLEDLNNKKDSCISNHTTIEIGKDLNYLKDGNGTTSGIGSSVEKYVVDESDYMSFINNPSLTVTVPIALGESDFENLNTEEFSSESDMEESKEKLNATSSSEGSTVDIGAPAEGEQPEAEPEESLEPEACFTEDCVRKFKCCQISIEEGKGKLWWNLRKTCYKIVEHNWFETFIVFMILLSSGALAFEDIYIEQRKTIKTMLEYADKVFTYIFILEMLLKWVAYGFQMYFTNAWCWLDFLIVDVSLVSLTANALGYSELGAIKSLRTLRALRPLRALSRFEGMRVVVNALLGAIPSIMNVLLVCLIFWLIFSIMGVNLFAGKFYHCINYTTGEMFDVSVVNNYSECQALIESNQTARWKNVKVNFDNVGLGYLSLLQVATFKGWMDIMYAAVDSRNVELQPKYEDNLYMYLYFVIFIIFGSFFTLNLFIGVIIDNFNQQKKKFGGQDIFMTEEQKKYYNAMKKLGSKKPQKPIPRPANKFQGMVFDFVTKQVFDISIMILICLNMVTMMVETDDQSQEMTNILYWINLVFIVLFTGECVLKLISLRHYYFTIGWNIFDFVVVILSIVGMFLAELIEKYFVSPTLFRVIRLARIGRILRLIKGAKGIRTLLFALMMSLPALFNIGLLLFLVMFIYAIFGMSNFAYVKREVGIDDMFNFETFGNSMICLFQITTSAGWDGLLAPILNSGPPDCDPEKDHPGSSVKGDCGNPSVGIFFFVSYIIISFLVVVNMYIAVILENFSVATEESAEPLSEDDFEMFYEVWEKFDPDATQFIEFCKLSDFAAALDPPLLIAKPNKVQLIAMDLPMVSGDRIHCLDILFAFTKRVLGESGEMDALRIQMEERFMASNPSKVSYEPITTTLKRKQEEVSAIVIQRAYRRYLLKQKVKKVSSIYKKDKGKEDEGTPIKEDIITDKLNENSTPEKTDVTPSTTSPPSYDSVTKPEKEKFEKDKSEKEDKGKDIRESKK

SMILES | block of [14C] Guanidine influx by TTX
NC1=N[C@H](O)[C@H]2[C@H]3O[C@]4(O)O[C@@H]([C@@H](O)[C@@]2(N1)[C@@H]4O)[C@]3(O)CO [TTX, tetrodotoxin] | Guanidine influx was completely

System: peripheral nerve injury
Conditions: intravenous; concentrations that do not affect general behaviour and motor function; cited from earlier work

SMILES | effect on ectopic activity in the injured nerve | effect on tactile allodynia
CCN(CC)CC(=O)Nc1c(C)cccc1C [lidocaine] | suppress the ectopic activity | reverse the tactile allodynia
